Results published in US8883789B2, “Piperazine derivatives and their use as positive allosteric modulators of mGluR5 receptors” (Boehringer Ingelheim International GmbH, priority 2011, dated 2014).
pEC50: −log10 of the molar value.

Biological target: T1, human recombinant mGluR5 (Homo sapiens, UniProt P41594)
T1 construct: expressed in transfected cells; hygromycin and geneticin selection
Experiment: positive modulation of mGluR5, calcium based FLIPR assay
Conditions: HEK 293 cell line expressing human recombinant mGluR5; Ca2+ peak height after glutamate at approximately 5% basal stimulation; nonlinear regression
Experimental: The positive modulation of mGluR5 is measured in a HEK 293 cell line expressing human recombinant mGluR5 and is detected with calcium based FLIPR assay. The cells are cultured with DMEM supplemented with 10% FCS, 2 μg/mL tetracycline, 100 μg/mL hygromycin and 500 μg/mL geneticin. The cell culture media is exchanged for tetracycline-free cell culture media 3-7 days before the assay. One day before the assay the cell culture medium is exchanged to DMEM without glutamine and phenol red and supplemented with 10% FCS, 100 μg/mL hygromycin and 500 μg/mL geneticin. On the assay day, the medium of the subconfluent cultures is removed and the cells are detached by addition of 2.5 ml EDTA (0.02%) per 175 cm2 culture flask for 1 minute. The cells are resuspend in Ringer solution (140 mM NaCl, 5 mM KCl, 2.5 mM CaCl2, 1.5 mM MgCl2, 5 mM Glucose, 10 mM Hepes; adjusted to pH 7.4 with NaOH), pooled and Ringer solution added to adjust the volume to 50 mL. The cell suspension is centrifuged for […] at 1500 U/min (425 g). The supernatant is removed and the cells washed a second time with 50 ml fresh Ringer solution and centrifuged again as before. The supernatant is again removed and the pellet resuspended in Ringer solution to 1,000,000 cells/ml (1×10^6 cells/mL). The cells are plated onto BD BioCoat Poly-D-Lysine 384 well plates (20.000 cells/well; 20 μl/well). The lid covered plates are then incubated until use at 37° C./10% CO2. For dye loading, 20 μl of Calcium-4 assay kit solution (prepared according to the manufacturer's description in Ringer solution) are added to the cells and the plates are incubated for 80 min 37° C. and then 10 min at room temperature.
Controls, Compound Dilution and Assay Execution:
Each assay plate contained wells with “high” and “low” controls:
Low controls 1% DMSO/ringer solution+basal glutamate activation (defined as 100% CTL).
High controls 10 μM CDPPB+basal glutamate activation (defined as 200% CTL).
Test compounds are dissolved and diluted in DMSO to 100-fold the desired concentrations. In a second step, the compounds are diluted in Ringer solution such that the compounds are 4-fold more concentrated than the desired final assay concentration. The final DMSO concentration was 1%.
20 μl of each compound solution are then transferred to the assay plate and the Ca2+ kinetic is measured to determine any intrinsic compound activity. After 5 min incubation in the FLIPR device, the second stimulation with 20 μl of glutamate in Ringer solution (glutamate concentration adjusted to approximately 5% basal stimulation of the maximal possible glutamate effect) is added and the kinetic Ca2+ response of the wells was measured for the modulation effect.
The peak height of the Ca release related fluorescence signal (9-66) is used for the EC50.
The EC50 of the modulation is calculated over a nonlinear regression with GraphPad Prism (Table 1).

T1 sequence (P41594 21-1212): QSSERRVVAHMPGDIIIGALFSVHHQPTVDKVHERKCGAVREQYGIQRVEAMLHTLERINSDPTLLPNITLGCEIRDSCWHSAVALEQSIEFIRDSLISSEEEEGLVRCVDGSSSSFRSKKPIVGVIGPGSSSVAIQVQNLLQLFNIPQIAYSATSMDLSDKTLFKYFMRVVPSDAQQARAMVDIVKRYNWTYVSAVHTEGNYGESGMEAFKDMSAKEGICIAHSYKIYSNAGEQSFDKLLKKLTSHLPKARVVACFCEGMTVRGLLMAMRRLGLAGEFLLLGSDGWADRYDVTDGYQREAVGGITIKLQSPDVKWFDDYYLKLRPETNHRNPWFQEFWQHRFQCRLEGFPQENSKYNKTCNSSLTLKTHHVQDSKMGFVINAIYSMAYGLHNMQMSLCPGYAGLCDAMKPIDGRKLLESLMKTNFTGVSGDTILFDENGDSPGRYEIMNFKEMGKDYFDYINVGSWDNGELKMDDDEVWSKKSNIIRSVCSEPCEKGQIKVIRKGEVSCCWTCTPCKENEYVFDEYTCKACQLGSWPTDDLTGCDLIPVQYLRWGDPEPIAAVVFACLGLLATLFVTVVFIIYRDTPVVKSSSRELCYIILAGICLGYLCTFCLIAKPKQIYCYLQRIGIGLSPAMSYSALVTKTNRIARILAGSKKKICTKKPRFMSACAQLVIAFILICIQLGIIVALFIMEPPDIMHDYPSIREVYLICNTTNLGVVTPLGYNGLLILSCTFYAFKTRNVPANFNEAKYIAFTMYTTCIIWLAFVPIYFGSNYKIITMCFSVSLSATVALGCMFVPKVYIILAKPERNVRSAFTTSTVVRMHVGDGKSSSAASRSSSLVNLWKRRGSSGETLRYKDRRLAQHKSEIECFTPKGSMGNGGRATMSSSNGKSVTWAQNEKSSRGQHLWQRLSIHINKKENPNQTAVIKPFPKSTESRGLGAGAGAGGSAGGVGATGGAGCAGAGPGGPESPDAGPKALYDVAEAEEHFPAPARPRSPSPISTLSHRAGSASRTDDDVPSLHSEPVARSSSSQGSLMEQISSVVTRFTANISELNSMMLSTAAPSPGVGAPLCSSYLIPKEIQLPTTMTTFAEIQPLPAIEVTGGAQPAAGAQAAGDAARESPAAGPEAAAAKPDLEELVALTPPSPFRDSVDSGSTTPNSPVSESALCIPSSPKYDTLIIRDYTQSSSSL

pEC50 | Compound
7.14 | CC1(C)CN(C(=O)c2cccc(-c3nccs3)c2)CCN1C(=O)c1ncn(-c2cccc(Cl)c2)n1 [Example 26]
7.04 | CC(C)Oc1cccc(C(=O)N2CCN(C(=O)c3ncn(-c4ccccc4)n3)C(C)(C)C2)c1 [Example 126]
6.32 | COc1cc(C(=O)N2CCN(C(=O)c3ncn(-c4cccc(F)c4)n3)CC2C)ccc1C (stereo not shown) [Example 233]
6.70 | CC1(C)CN(C(=O)c2csc(-c3ccccc3)n2)CCN1C(=O)c1ncn(-c2cccc(Cl)c2)n1 [Example 54]
6.84 | O=C(c1cccc(Cl)c1)N1CCN(C(=O)c2ncn(-c3ccccc3)n2)C2(CCCC2)C1 [Example 309]
7.16 | CCc1ccc(C(=O)N2CCN(C(=O)c3ncn(-c4cccc(Cl)c4)n3)C(C)(C)C2)o1 [Example 60]
5.66 | CCCc1nc2cc(C(=O)N3CCN(C(=O)c4ncn(-c5ccccc5)n4)C(C)(C)C3)cc(C)c2[nH]1 [Example 146]
6.43 | CC1(C)CN(C(=O)c2ccnc(C(F)(F)F)c2)CCN1C(=O)c1ncn(-c2cccc(Cl)c2)n1 [Example 88]
6.22 | CC1CN(C(=O)c2ncn(-c3cccc(Cl)c3)n2)CCN1C(=O)c1sc2ccccc2c1Cl (stereo not shown) [Example 226]
6.67 | COc1cccc(C(=O)N2CCN(C(=O)c3ncn(-c4cccc(C)c4)n3)CC2C)n1 (stereo not shown) [Example 244]
6.77 | CC1(C)CN(C(=O)c2cccc(COc3ccccc3)c2)CCN1C(=O)c1ncn(-c2cccc(Cl)c2)n1 [Example 74]
5.93 | Cc1c(C(=O)N2CCN(C(=O)c3ncn(-c4cccc(Cl)c4)n3)CC2C)oc2c(F)cccc12 (stereo not shown) [Example 232]
6.32 | COc1cc(OC)cc(C(=O)N2CCN(C(=O)c3ncn(-c4cccc(Cl)c4)n3)C(C)C2)c1 (stereo not shown) [Example 280]
6.78 | COc1cccc(C(=O)N2C[C@@H](C)N(C(=O)c3ncn(-c4cccc(C)c4)n3)[C@@H](C)C2)n1 [Example 302, (2R*,6S*)-4-[(6-methoxypyridin-2-yl)carbonyl]-2,6-dimethyl-1-{[1-(3-methylphenyl)-1H-1,2,4-triazol-3-yl]carbonyl}piperazine]
6.97 | CC1(C)CN(C(=O)c2nccc(C(F)(F)F)n2)CCN1C(=O)c1ncn(-c2cccc(Cl)c2)n1 [Example 84]
6.50 | Cc1cccc(-n2cnc(C(=O)N3CCN(C(=O)c4c(C)oc5ccccc45)C(C)C3)n2)c1 (stereo not shown) [Example 238]
7.33 | CC1(C)CN(C(=O)c2cccc(C(F)F)c2)CCN1C(=O)c1ncn(-c2ccccc2)n1 [Example 135]
6.74 | COc1ccc2c(C)c(C(=O)N3CCN(C(=O)c4ncn(-c5cccc(Cl)c5)n4)C(C)(C)C3)oc2c1 [Example 47]
6.60 | COc1cccc(C(=O)N2[C@H](C)CN(C(=O)c3ncn(-c4cccc(C)c4)n3)C[C@@H]2C)n1 [Example 263, (2R*,6S*)-1-[(6-Methoxypyridin-2-yl)carbonyl]-2,6-dimethyl-4-{[1-(3-methylphenyl)-1H-[1,2,4]-triazol-3-yl]carbonyl}piperazine]
6.05 | Cc1cccc(-n2cnc(C(=O)N3C[C@@H](C)N(C(=O)c4oc5ccc(Cl)cc5c4C)[C@@H](C)C3)n2)c1 [Example 264]
7.72 | CC1(C)CN(C(=O)c2cc(Cl)c3c(c2)OCCO3)CCN1C(=O)c1nnn(-c2ccccc2)n1 [Example 164, [4-(8-Chloro-2,3-dihydro-benzol-[1,4]dioxine-6-carbonyl)-2,2-dimethyl-piperazin-1-yl]-(2-phenyl-2H-tetrazol-5-yl)-methanone]
7.60 | CC1(C)CN(C(=O)c2cccc(C(F)(F)F)c2)CCN1C(=O)c1ncn(-c2cccc(Cl)c2)n1 [Example 14]
7.43 | CC1(C)CN(C(=O)c2cccc(C3CCCC3)n2)CCN1C(=O)c1ncn(-c2cccc(Cl)c2)n1 [Example 177, [1-(3-Chloro-phenyl)-1H-[1,2,4]-triazol-3-yl]-[4-(6-cyclopentyl-pyridine-2-carbonyl]-2,2-dimethyl-piperazin-1-yl]-methanone]
6.81 | CCc1ccc(C(=O)N2CCN(C(=O)c3ncn(-c4cccc(Cl)c4)n3)C(C)(C)C2)cc1 [Example 81]
6.80 | CC1(C)CN(C(=O)c2cccc(Cl)c2)CCN1C(=O)c1nnn(-c2cccc(F)c2)n1 [Example 192]
7.29 | CC1(C)CN(C(=O)c2cc(Cl)c3c(c2)OCCO3)CCN1C(=O)c1ncn(-c2cccc(Cl)c2)n1 [Example 19]

pEC50 | Compound
6.37 | CC1CN(C(=O)c2ncn(-c3cccc(Cl)c3)n2)CCN1C(=O)c1cccc(-c2nccs2)c1 (stereo not shown) [Example 218]
6.87 | Cn1ccc2cc(C(=O)N3CCN(C(=O)c4ncn(-c5ccccc5)n4)C(C)(C)C3)ccc21 [Example 138]
6.57 | COc1ccc2oc(C)c(C(=O)N3CCN(C(=O)c4ncn(-c5cccc(C)c5)n4)C(C)C3)c2c1 (stereo not shown) [Example 290]
6.49 | CC1CN(C(=O)c2cc3c(Cl)cccc3s2)CCN1C(=O)c1ncn(-c2cccc(Cl)c2)n1 (stereo not shown) [Example 268]
6.64 | COc1cccc(C(=O)N2CCN(C(=O)c3ncn(-c4cccc(F)c4)n3)CC2C)n1 (stereo not shown) [Example 246]
6.41 | COC(C)c1cccc(C(=O)N2CCN(C(=O)c3ncn(-c4ccccc4)n3)C(C)(C)C2)c1 (stereo not shown) [Example 116]
7.62 | CC1(C)CN(C(=O)c2cccc(Cl)c2)CCN1C(=O)c1nnn(-c2ccccc2)n1 [Example 187]
6.91 | COc1cccc(C(=O)N2CCN(C(=O)c3nnn(-c4cccc(C)c4)n3)C(C)(C)C2)n1 [Example 198]
7.21 | COc1nc(C(=O)N2CCN(C(=O)c3ncn(-c4cccc(Cl)c4)n3)C(C)(C)C2)cc2cc(F)ccc12 [Example 21]
6.56 | COc1cccc(C(=O)N2CCN(C(=O)c3ncn(-c4cccc(Cl)c4)n3)C[C@@H]2C)n1 [Example 252, (S)-{4-[1-(3-Chloro-phenyl)-1H-[1,2,4]triazole-3-carbonyl]-2-methyl-piperazin-1-yl}-(6-methoxy-pyridin-2-yl)-methanone]
7.21 | CC1(C)CN(C(=O)c2cc(Br)c(Br)o2)CCN1C(=O)c1ncn(-c2cccc(Cl)c2)n1 [Example 25]
6.30 | O=C(c1cc(Br)c(Br)o1)N1CCN(C(=O)c2ncn(-c3cccc(F)c3)n2)C2(CC2)C1 [Example 305]
6.67 | CC1(C)CN(C(=O)c2cccc(-c3ccncc3)n2)CCN1C(=O)c1ncn(-c2ccccc2)n1 [Example 111]
6.87 | CC1(C)CN(C(=O)c2cc(Cl)ccc2F)CCN1C(=O)c1ncn(-c2ccccc2)n1 [Example 155]
6.65 | CC1(C)CN(C(=O)c2cncc(C(F)(F)F)n2)CCN1C(=O)c1ncn(-c2cccc(Cl)c2)n1 [Example 49]
6.63 | COc1ccc(C(=O)N2CCN(C(=O)c3ncn(-c4cccc(Cl)c4)n3)C(C)(C)C2)s1 [Example 76]
6.84 | CC1(C)CN(C(=O)c2cccc(-c3ccc(C#N)cc3)c2)CCN1C(=O)c1ncn(-c2cccc(Cl)c2)n1 [Example 78]
7.19 | COc1cccc(C(=O)N2CCN(C(=O)c3nnn(-c4cccc(F)c4)n3)C(C)(C)C2)n1 [Example 202]
6.63 | CC1(C)CN(C(=O)c2cc(Cl)c(F)c(Cl)c2)CCN1C(=O)c1ncn(-c2ccccc2)n1 [Example 156]
7.16 | COc1cccc(C(=O)N2CCN(C(=O)c3nnn(-c4cccc(Cl)c4)n3)C(C)(C)C2)n1 [Example 199]
6.76 | COc1ccc2oc(C)c(C(=O)N3CCN(C(=O)c4ncn(-c5cccc(C)c5)n4)CC3C)c2c1 (stereo not shown) [Example 237]
6.95 | Cn1nccc1-c1cccc(C(=O)N2CCN(C(=O)c3ncn(-c4cccc(Cl)c4)n3)C(C)(C)C2)n1 [Example 91]
7.28 | CC1(C)CN(C(=O)c2cccc(C(F)(F)F)n2)CCN1C(=O)c1ncn(-c2ccccc2)n1 [Example 101]
6.71 | COc1cccc(C(=O)N2CCN(C(=O)c3ncn(-c4cccc(Cl)c4)n3)C(C)C2)n1 (stereo not shown) [Example 265, {4-[1-(3-Chloro-phenyl)-1H-[1,2,4]-triazole-3-carbonyl]-3-methyl-piperazin-1-yl}-(6-methoxy-pyridin-2-yl)-methanone]
7.55 | CC1(C)CN(C(=O)c2cccc(C3CC3)n2)CCN1C(=O)c1nnn(-c2cccc(Cl)c2)n1 [Example 182]
6.69 | CC1(C)CN(C(=O)c2cccc(C#N)n2)CCN1C(=O)c1ncn(-c2cccc(Cl)c2)n1 [Example 33]
